For one series, the target named is Carbonic anhydrase 2 (Homo sapiens, UniProt P00918).
Series [1] in a line: Equilibrium dissociation constant was determined. Type of series: ADME.
The nature of series [2]: Equilibrium dissociation constant of CA complex for enantiomer 2 of compound. Type of series: ADME.
Series [3] relates to Carbonic anhydrase (Oryctolagus cuniculus). Nature of the series: Inhibition of carbonic anhydrase activity in a homogenate of rabbit iris-ciliary body at a dose of 0.05 mg (ex vivo).
Series [4] shares this test system. Nature of the series: Ex vivo inhibition of carbonic anhydrase in homogenate of rabbit iris-ciliary body; expressed as volume/minute of 0.025 N NaOH required to maintain pH of assay mixture at 0.05 mg.
The test system is the same in series [5]. Nature of the series: Ex vivo inhibition of carbonic anhydrase in homogenate of rabbit iris-ciliary body; expressed as volume/minute of 0.025 N NaOH required to maintain pH of assay mixture at 0.25 mg.
Series [6] has the same test system. The series can be described thus: Inhibition of carbonic anhydrase activity in a homogenate of rabbit iris-ciliary body at a dose of 0.25 mg (ex vivo).
Series [7] is described as follows: Equilibrium dissociation constant of CA complex for enantiomer 1 of compound. Type of series: ADME.
The next series addresses Carbonic anhydrase. Type of series: protein assay, Canis lupus familiaris.

The structures appear in SMILES notation.

Description for Carbonic anhydrase 2: In vitro inhibition of purified human erythrocyte carbonic anhydrase II
Description for physchem: Acid dissociation constant was determined

On Carbonic anhydrase 2, `COCCOCCOCS(=O)(=O)CS(N)(=O)=O` registered a 50% inhibitory concentration (IC50) of 1.3 µM.

As to `NS(=O)(=O)CS(=O)(=O)CCc1ccccc1`, the pKa in “physchem” stood at 8.4. The molecule further returned a concentration for half-maximal inhibition (IC50) against Carbonic anhydrase 2 of 0.1 µM.

As for `NS(=O)(=O)CSCCc1ccccc1`, the pKa in “physchem” came out at 9.5. The same molecule had an IC50 on Carbonic anhydrase 2 of 2 µM.

As for `CCCCCCCCS(=O)(=O)C(Cl)(Cl)S(N)(=O)=O`, it took 0.2 µM to reach half-maximal inhibition against Carbonic anhydrase 2 (IC50).

Molecule `NS(=O)(=O)CSc1ccc(O)cc1` registered a pKa in the series “physchem” of 10.1. In addition, at Carbonic anhydrase 2, the IC50 was determined as 2.9 µM.

In turn, `NS(=O)(=O)CS(=O)(=O)c1ccc(O)cc1` returned a pKa in “physchem” of 9.1. This molecule also displayed a half-inhibitory concentration (IC50) against Carbonic anhydrase 2 of 0.4 µM.

Take `CCCCCCCCSCS(N)(=O)=O`: on Carbonic anhydrase 2, the IC50 came to 0.48 µM.

Turning to `CCCCCCCCS(=O)(=O)C(Cl)S(N)(=O)=O` (stereo not drawn), in “physchem”, the pKa amounted to 7.7. In addition, at Carbonic anhydrase 2, the half-maximal inhibitory concentration (IC50) is 0.012 µM. The molecule also registered a dissociation constant Kd in [1] of 0.017 µM.

With `CCCCCCCCS(=O)(=O)C(C)S(N)(=O)=O` (stereo not drawn), the pKa in “physchem” stood at 8.9. At Carbonic anhydrase 2, this molecule displayed a half-maximal inhibitory concentration (IC50) of 2.5 µM.

Take `COc1ccc2c(c1)S(=O)(=O)C(S(N)(=O)=O)C2` (stereo not drawn): in the series “physchem”, the pKa came out at 8.8. This molecule also yielded an IC50 against Carbonic anhydrase 2 of 0.8 µM.

In the case of `CCCCCCCCS(=O)(=O)CS(N)(=O)=O`, in “physchem”, the pKa turned out to be 9.4. Besides, the IC50 against Carbonic anhydrase 2 was 0.022 µM.

In the series “physchem”, `NS(=O)(=O)CS(=O)(=O)CCCc1ccccc1` gave a pKa of 8.4. The molecule further showed a concentration for half-maximal inhibition (IC50) against Carbonic anhydrase 2 of 0.19 µM.

Turning to `NS(=O)(=O)CSCCCc1ccccc1`, in “physchem”, the pKa came to 9.4. The molecule further had an IC50 on Carbonic anhydrase 2 of 1.2 µM.

For `CCCCCCCCS(=O)(=O)C(F)S(N)(=O)=O` (stereo not drawn), the Kd in series [2] was found to be 0.00064 µM; in [7], 0.00357 µM. The results for the inhibition in series [3] and in series [6] were 71% and 91%, respectively. In addition, the pKa in the series “physchem” was determined as 7.5. In addition, the CA activity ((ml of NaOH) min-1) is 0.147 in [4] and 0.043 in series [5]. This molecule also showed a 50% inhibitory concentration (IC50) against Carbonic anhydrase 2 of 0.003 µM.

The molecule `CCS(N)(=O)=O` [ETHANESULFONIC ACID AMIDE] yielded an IC50 at Carbonic anhydrase of 1000 µM.

Broadly, the IC50 is the midpoint of a concentration-inhibition curve. Higher therefore signals a need for much substance. The term pKa denotes the negative logarithm of the acid dissociation constant. Read a high pKa as a group that holds its proton tightly. In general, Kd refers to the equilibrium constant for the complex coming apart. The low end stands for higher affinity, the high end for lower affinity. By inhibition is commonly meant the percentage by which the read-out fell short of the control.

These data come from ChEMBL document CHEMBL1126746, “Sulfonylmethanesulfonamide inhibitors of carbonic anhydrase” (J Med Chem, 1993).
